Common to all, as to format: cell-based
One experiment relates to COLO-205. Description: NCI60 five-dose GI50. The note with it: Homo sapiens, colon. The source says:
(§1) The concentration−response curve generated enables the determination of three criteria, GI50 (drug concentration at which 50% of cell growth is inhibited), total growth inhibition (TGI) and LC50 (drug concentration at which 50% of tumor cells are killed) which can be used to compare effectiveness against any compound tested in the screen since its inception.
(§2) S2.1 NCI Screening Assay Experimental details
(§3) NCI Screening Assay Experimental: Cancer cell growth assays (NCI60 screening) 5,6 One-dose study: Tested compounds were initially solubilised in DMSO, diluted into RPMI 1640 and 5% fetal bovine serum/L-glutamine, and added to 96-well plates containing cell lines previously cultured for 24 h. After 48 h incubation, the media were removed, and the cells were fixed and stained with sulforhodamine B to determine overall percent growth/ total protein content. Unbound dye was removed with five washes of 1% acetic acid, and the plates were allowed to air dry. The dye was then resolubilised in Tris buffer, and the colorimetric absorbance was measured (515 nm). Growth inhibition was measured relative to the response generated from proliferating cells cultured under identical conditions for 48 h. Data from one-dose experiments pertains to the percentage growth at […]
(§4) Five-dose study: Serial 5 × 10-fold dilution from an initial DMSO stock solution was performed, prior to incubation at each individual concentration (10 nM, 100 nM, 1 μM, 10 μM and 100 μM). Using seven absorbance measurements (time zero (Tz), control growth (C), and test growth in the presence of drug at the five concentration levels (Ti)), the percentage growth was calculated at each of the drug concentrations levels. Percentage growth inhibition was calculated as: [(Ti − Tz)/(C − Tz)] × 100 for concentrations for which Ti ≥ Tz, [(Ti − Tz)/Tz] × 100 for concentrations for which Ti < Tz. Three dose response parameters were calculated for each experimental agent. […]
(§5) was calculated from [(Ti − Tz)/(C − Tz)] × 100 = 50, which is the drug concentration resulting in a 50% reduction in the net protein increase (as measured by sulforhodamine B staining) in control cells during the drug incubation. The drug concentration resulting in total growth inhibition (TGI) was calculated from Ti = Tz. The LC50 (concentration of drug resulting in a 50% reduction in the measured protein at the end of the drug treatment as compared to that at the beginning) indicating a net loss of cells following treatment was calculated from [(Ti − Tz)/Tz] × 100 = −50. Values were calculated for each of these three parameters if the level of activity was reached; however, if the effect was not reached or was exceeded, the value for that parameter was expressed as greater or less than the maximum or minimum concentration tested.

Another experiment has as its system K-562. Description: NCI60 five-dose GI50. As to conditions: Homo sapiens, K562, five dose; leukemia.
Text: as §1, §2, §3, §4, §5

The subject of the next experiment is LOX-IMVI. Description: NCI60 five-dose GI50. The note with it: Homo sapiens, melanoma.
Text: as §1, §2, §3, §4, §5

The test system of a further experiment is MCF-7. Kind of experiment: NCI60 five-dose GI50. The note with it: Homo sapiens, MCF7, breast.
Text: as §1, §2, §3, §4, §5

The next experiment has as its system NCI-ADR/RES. Kind of experiment: NCI60 five-dose GI50. The note with it: Homo sapiens.
Text: as §1, §2, §3, §4, §5

Another experiment deals with OVCAR-3. Kind of experiment: NCI60 five-dose GI50. As to conditions: Homo sapiens, ovarian.
Text: as §1, §2, §3, §4, §5

Another experiment has as its system UACC-62. Kind of experiment: NCI60 five-dose GI50. As to conditions: Homo sapiens, melanoma.
Text: as §1, §2, §3, §4, §5

In experiment [1] the test system is NCI-H460. Description: NCI60 five-dose GI50 (NCI data). As to conditions: Homo sapiens, NCI data provided for comparison, read-out: NSCLC NCI-H460 GI50 (NCI).
Text: as §1, §2, §3, §4, §5

The next experiment concerns DLD1. Description: SRB cell growth inhibition assay. As to conditions: Homo sapiens, DLD-1, 48 h, colorectal cancer sensitive, mean ± SEM. From the text:
(§6) Taking into consideration the promising results of preliminary NCI screening, nine compounds (1, 2, 3, 4, 5, 20, 23, 24, 25) were selected for further screening in two counterpart pairs of sensitive and MDR cell lines. […] Two distinct pairs of counterpart drug-sensitive and MDR human tumor cell lines were used, namely the non-small lung cancer (NSCLC) NCI-H460 (same cell line as in the NCI screen) and its MDR counterpart cell line NCI-H460/R and the colorectal cancer DLD1 and its MDR counterpart cell line DLD1-TxR (Table 3). The screening was performed using the SRB assay, and the GI50 for each compound was determined by interpolation on the attained concentration−response curves and compared with NCI60 screening data (SI, Figures S62−S63; Table S21).
(§7) Two pairs of drug-sensitive and multidrug-resistant (MDR) cell lines from human nonsmall cell lung cancer (NSCLC), NCI-H460 and NCI-H460/R, and colorectal cancer, DLD1 and DLD1-TxR, kindly provided by Dr M. Pešić (Belgrade, Serbia), were used to evaluate the growth inhibition potential of the compounds 1, 2, 3, 4, 5, 20, 23, 24, an 25.[76],[77] Additionally, growth inhibition assays were performed with compound 25 on two other NSCLC cell lines, A549 and NCI-H322, obtained from the American Type Culture Collection (ATCC) and the European Collection of Authenticated Cell Cultures, respectively. The A549 cell line was maintained in Dulbecco’s Modified Eagle Medium (DMEM) supplemented with 4.5 g/L Glucose with UltraGlutamine with sodium pyruvate (Lonza, Basel Stücki, Switzerland), enriched with 10% fetal bovine serum (FBS; Biowest, Nuaillé, France). The lung fibroblast MRC-5 cell line and the remaining NSCLC and colorectal cancer cell lines were cultured in Roswell Park Memorial Institute (RPMI) 1640 (with stable glutamine and 25 mM HEPES) medium (Biowest), supplemented with 10% fetal bovine serum. […] For the sulforhodamine B (SRB) and 3D cell culture assays, the media were supplemented with 5% FBS. The remaining experiments were performed with medium supplemented with 10% FBS.
(§8) Cells were seeded at a previously determined optimal cell concentration (5.0 × 10^4 cells/mL for NSCLC cells and the nontumorigenic MRC-5 cell line and 1.0 × 10^5 cells/mL for colorectal cancer cells) and incubated at 37 °C for 24 h. […] The SRB assay was performed as previously described.[78],[79] Briefly, after fixing cells with 10% (w/v) ice-cold trichloroacetic acid (Merck Life Science), the proteins were stained with 0.4% of SRB (Merck Life Science) in acetic acid (Merck Life Science). Following washing steps in acetic acid, the bound dye was solubilized with 10 mM Tris base solution (Merck Life Science). Absorbance was measured at 510 nm in a multiplate reader (Synergy Mx, Biotek Instruments Inc., Winooski, Vermont, USA) using the Gen5 software (Biotek Instruments Inc.).

Experiment [2] concerns NCI-H460. Kind of experiment: SRB cell growth inhibition assay. As to conditions: Homo sapiens, 48 h, NSCLC sensitive, mean ± SEM.
Text: as §6, §7, §8

Drawing on paper PMC11345829, “Discovery of Potent Isoquinolinequinone N-Oxides to Overcome Cancer Multidrug Resistance” (Journal of Medicinal Chemistry, 2024), this text covers GI50 for eight compounds.

In the case of `COC(=O)c1c2c(c(C)[n+]([O-])c1C)C(=O)C(NCc1ccc(O)cc1)=CC2=O` [Compound 20], the GI50 in the experiment with COLO-205 stood at 579 nM; with K-562, 1630 nM; in the experiment with LOX-IMVI it was 938 nM; in the experiment on MCF-7, 416 nM; in the experiment on NCI-ADR/RES (MDR ovarian), 2200 nM; in the experiment with OVCAR-3, 266 nM. Further, the GI50 in the experiment with UACC-62 is 1360 nM; with NCI-H460 [1] it was 1580 nM; in the experiment on DLD1, 9670 ± 1150 nM; with NCI-H460 [2] it was 6020 ± 340 nM.

Consider `COC(=O)c1c2c(c(C)[n+]([O-])c1C)C(=O)C(NCc1ccc(F)cc1)=CC2=O` [Compound 4], for which the GI50 in the experiment with COLO-205 was 376 nM; with K-562, 2430 nM; in the experiment with LOX-IMVI it was 1940 nM; in the experiment with MCF-7, 1110 nM; in the experiment on NCI-ADR/RES (MDR ovarian) it was 1680 nM; with OVCAR-3 it was 319 nM. Moreover, the GI50 in the experiment with UACC-62 came to 1250 nM; in the experiment on NCI-H460 [1], 792 nM; in the experiment on DLD1, 5940 ± 300 nM; in the experiment on NCI-H460 [2], 2700 ± 300 nM.

Turning to `COC(=O)c1c2c(c(C)[n+]([O-])c1C)C(=O)C=C(NCc1ccccc1)C2=O` [Compound 2], the GI50 was 2740 nM with NCI-H460 [1], 2330 ± 380 nM with DLD1 and 1430 ± 130 nM with NCI-H460 [2].

On to `COC(=O)c1c2c(c(C)[n+]([O-])c1C)C(=O)C=C(NCc1ccc(F)cc1)C2=O` [Compound 5], for which the GI50 was found to be 260 nM in the experiment on COLO-205; 352 nM in the experiment with K-562; 226 nM in the experiment with LOX-IMVI; 296 nM in the experiment with MCF-7; 487 nM in the experiment with NCI-ADR/RES (MDR ovarian); 240 nM in the experiment with OVCAR-3. In addition, the GI50 amounted to 229 nM with UACC-62, 525 nM in the experiment on NCI-H460 [1], 1220 ± 140 nM in the experiment on DLD1 and 560 ± 200 nM in the experiment with NCI-H460 [2].

As to `COC(=O)c1c2c(c[n+]([O-])c1C)C(=O)C=CC2=O` [Compound 23], the GI50 was 1850 nM in the experiment on COLO-205; 2510 nM in the experiment with K-562; 1960 nM in the experiment on LOX-IMVI; 1650 nM with MCF-7; 3270 nM in the experiment on NCI-ADR/RES (MDR ovarian); 320 nM in the experiment with OVCAR-3. The GI50 in the experiment with UACC-62 was 1810 nM; in the experiment on NCI-H460 [1], 12800 nM; in the experiment on DLD1, 30200 ± 4080 nM; in the experiment on NCI-H460 [2], 38000 ± 8320 nM.

With `COC(=O)c1c2c(c[n+]([O-])c1C)C(=O)C=C(NCc1ccccc1)C2=O` [Compound 25], the GI50 amounted to 160 nM in the experiment on COLO-205; 250 nM in the experiment with K-562; 190 nM with LOX-IMVI; 150 nM with MCF-7; 227 nM with NCI-ADR/RES; 230 nM with NCI-ADR/RES (MDR ovarian). The GI50 came to 48 nM in the experiment on OVCAR-3; 160 nM with UACC-62; 210 nM in the experiment with NCI-H460 [1]; 610 ± 110 nM with DLD1; 350 ± 20 nM in the experiment on NCI-H460 [2].

With `COc1cccc2c1C(=O)c1c(O)c3c(c(O)c1C2=O)C[C@@](O)(C(=O)CO)C[C@@H]3O[C@H]1C[C@H](N)[C@H](O)[C@H](C)O1` [doxorubicin, reference compound], the GI50 in the experiment on NCI-H460 [2] came to 30 ± 10 nM.

Consider `COC(=O)c1c2c(c[n+]([O-])c1C)C(=O)C(NCc1ccccc1)=CC2=O` [Compound 24], for which the GI50 in the experiment with COLO-205 worked out at 330 nM; with K-562 it was 620 nM; in the experiment on LOX-IMVI, 300 nM; with MCF-7, 200 nM; with NCI-ADR/RES (MDR ovarian) it was 310 nM; in the experiment on OVCAR-3, 270 nM. The GI50 worked out at 350 nM in the experiment on UACC-62, 383 nM with NCI-H460 [1], 1390 ± 170 nM in the experiment with DLD1 and 750 ± 140 nM in the experiment with NCI-H460 [2].
